{"source": "patent US20240165148A1", "about": "“HYALURONIC ACID-CONJUGATED DIPALMITOYL PHOSPHATIDYL ETHANOLAMINE IN COMBINATION WITH NON-STEROIDAL ANTI-INFLAMMATORY DRUGS (NSAIDS) FOR TREATING OR ALLEVIATING INFLAMMATORY DISEASES” (priority 2021, published 2024)", "key": {"[1]": {"system": "LTB4 production in the hypothalamus (HT)", "settings": "LPS-stimulated rats, Student's T test", "description": "(§1) Male Sprague-Dawley rats were purchased from Harlan laboratories, fed ad libitum and housed in accordance with animal facility guidelines. Animals were assigned 10 each to the 7 groups, in accordance with the treatment protocol described below. Body temperature (BT) was measured at all treatment time-points, to evaluate the effects of drug treatment on the LPS-induced changes in BT. On the second day of the experiment, 2 hours post- drug treatment, rats were sacrificed by decapitation after a short anesthesia (with a mixture of isoflurane-oxygen in air inhalation), blood was collected and brain regions (hypothalamus and hippocampus) immediately extracted. Brain regions were manually homogenized in a PBS solution containing a cocktail of phosphatase/protease inhibitors. Homogenates were centrifuged at 4° C., 10,000 rpm, for 10 minutes. Supernatants were collected and stored at −80° C. for further determination.\n(§2) Leukotriene B4 (LTB4) levels were determined in the hypothalamus and hippocampus samples, using commercially available ELISA kits.\n(§3) Seven groups of rats, ten rats in each group, were administered treatment intra-peritoneally, according to the following treatment regimens: • 1)- Control group- Animals were treated with vehicle control (NaCl 0.9% 0.2 ml); • 2) LPS: Animals were treated with vehicle control at 6 and 2 hours prior to LPS (1 mg/kg) injection. […]"}, "[2]": {"system": "LTB4 production in the hippocampus (HC)", "settings": "LPS-stimulated rats, Student's T test", "description": "as §1, §2, §3"}}, "note": "“Also recorded” adds a separate entry of the source."}
{"substance": "Di-palmitoyl (C-16) phosphatidyl ethanolamine (DPPE) conjugated to hyaluronic acid (Hy) [HyDPPE]", "values": [{"measurement": "Effect on LPS-induced LTB4 production (in words)", "setting": "[1]", "result": "counteracted the LPS-induced production of LTB4"}, {"measurement": "Effect on LPS-induced LTB4 production (in words)", "setting": "[2]", "result": "counteracted the LPS-induced production of LTB4; also recorded: reversed the increased LTB4 production"}]}
